Measured values reported in the kinase profiling compilation of Christmann-Franck et al. (2016).

Key:
Assay in all cases: KINOMEscan competition binding
Conditions in all cases: compound 10.0 µM
DMPK (human) = DMPK (human) (UniProt Q09013)
STK10 (human) = STK10 (human) (UniProt O94804)
PTK6 (human) = PTK6 (human) (UniProt Q13882)
PIP5K1A (human) = PIP5K1A (human) (UniProt Q99755)
LRRK2 (human) = LRRK2 (human) (UniProt Q5S007)
CLK1 (human) = CLK1 (human) (UniProt P49759)
CDK11B (human) = CDK11B (human) (UniProt P21127)
TAOK1 (human) = TAOK1 (human) (UniProt Q7L7X3)
SIK3 (human) = SIK3 (human) (UniProt Q9Y2K2)
WEE2 (human) = WEE2 (human) (UniProt P0C1S8)
PIM3 (human) = PIM3 (human) (UniProt Q86V86)
NEK5 (human) = NEK5 (human) (UniProt Q6P3R8)
MELK (human) = MELK (human) (UniProt Q14680)
MAP3K6 (human) = MAP3K6 (human) (UniProt O95382)
PIP4K2B (human) = PIP4K2B (human) (UniProt P78356)
TESK1 (human) = TESK1 (human) (UniProt Q15569)
DSTYK (human) = DSTYK (human) (UniProt Q6XUX3)
ULK1 (human) = ULK1 (human) (UniProt O75385)
PRKD1 (human) = PRKD1 (human) (UniProt Q15139)
[1] = molecular target: JAK1 JH1 catalytic (human) (UniProt P23458)
IRAK1 (human) = IRAK1 (human) (UniProt P51617)
MTOR (human) = MTOR (human) (UniProt P42345)
CDK14 (human) = CDK14 (human) (UniProt O94921)
WEE1 (human) = WEE1 (human) (UniProt P30291)
[2] = tested on: KIT (human), P10721 [L576P]
PRKCI (human) = PRKCI (human) (UniProt P41743)
ROCK1 (human) = ROCK1 (human) (UniProt Q13464)
CDK16 (human) = CDK16 (human) (UniProt Q00536)
TNK1 (human) = TNK1 (human) (UniProt Q13470)
PAK3 (human) = PAK3 (human) (UniProt O75914)
PRKACB (human) = PRKACB (human) (UniProt P22694)
ACVR1B (human) = ACVR1B (human) (UniProt P36896)
GRK7 (human) = GRK7 (human) (UniProt Q8WTQ7)
STK33 (human) = STK33 (human) (UniProt Q9BYT3)
MYO3A (human) = MYO3A (human) (UniProt Q8NEV4)
EPHB1 (human) = EPHB1 (human) (UniProt P54762)
HIPK1 (human) = HIPK1 (human) (UniProt Q86Z02)
[3] = tested on: FGFR3 (human), P22607 [G697C]
LYN (human) = LYN (human) (UniProt P07948)
CaMK1 (human) = CaMK1 (human) (UniProt Q14012)
CaMK1 (human), sequence (Q14012 whole entry, looked up): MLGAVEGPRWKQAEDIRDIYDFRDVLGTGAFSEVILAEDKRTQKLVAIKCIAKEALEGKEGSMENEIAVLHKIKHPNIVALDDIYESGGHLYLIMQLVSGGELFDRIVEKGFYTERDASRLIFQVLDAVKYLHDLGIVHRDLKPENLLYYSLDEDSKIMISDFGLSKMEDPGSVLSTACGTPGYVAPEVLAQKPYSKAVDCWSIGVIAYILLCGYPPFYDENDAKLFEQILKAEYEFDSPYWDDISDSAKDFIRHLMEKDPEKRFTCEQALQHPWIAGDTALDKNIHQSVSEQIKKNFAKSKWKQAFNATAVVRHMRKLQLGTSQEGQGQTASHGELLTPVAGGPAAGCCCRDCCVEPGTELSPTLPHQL

LRRK2 (human), sequence (Q5S007 whole entry, looked up): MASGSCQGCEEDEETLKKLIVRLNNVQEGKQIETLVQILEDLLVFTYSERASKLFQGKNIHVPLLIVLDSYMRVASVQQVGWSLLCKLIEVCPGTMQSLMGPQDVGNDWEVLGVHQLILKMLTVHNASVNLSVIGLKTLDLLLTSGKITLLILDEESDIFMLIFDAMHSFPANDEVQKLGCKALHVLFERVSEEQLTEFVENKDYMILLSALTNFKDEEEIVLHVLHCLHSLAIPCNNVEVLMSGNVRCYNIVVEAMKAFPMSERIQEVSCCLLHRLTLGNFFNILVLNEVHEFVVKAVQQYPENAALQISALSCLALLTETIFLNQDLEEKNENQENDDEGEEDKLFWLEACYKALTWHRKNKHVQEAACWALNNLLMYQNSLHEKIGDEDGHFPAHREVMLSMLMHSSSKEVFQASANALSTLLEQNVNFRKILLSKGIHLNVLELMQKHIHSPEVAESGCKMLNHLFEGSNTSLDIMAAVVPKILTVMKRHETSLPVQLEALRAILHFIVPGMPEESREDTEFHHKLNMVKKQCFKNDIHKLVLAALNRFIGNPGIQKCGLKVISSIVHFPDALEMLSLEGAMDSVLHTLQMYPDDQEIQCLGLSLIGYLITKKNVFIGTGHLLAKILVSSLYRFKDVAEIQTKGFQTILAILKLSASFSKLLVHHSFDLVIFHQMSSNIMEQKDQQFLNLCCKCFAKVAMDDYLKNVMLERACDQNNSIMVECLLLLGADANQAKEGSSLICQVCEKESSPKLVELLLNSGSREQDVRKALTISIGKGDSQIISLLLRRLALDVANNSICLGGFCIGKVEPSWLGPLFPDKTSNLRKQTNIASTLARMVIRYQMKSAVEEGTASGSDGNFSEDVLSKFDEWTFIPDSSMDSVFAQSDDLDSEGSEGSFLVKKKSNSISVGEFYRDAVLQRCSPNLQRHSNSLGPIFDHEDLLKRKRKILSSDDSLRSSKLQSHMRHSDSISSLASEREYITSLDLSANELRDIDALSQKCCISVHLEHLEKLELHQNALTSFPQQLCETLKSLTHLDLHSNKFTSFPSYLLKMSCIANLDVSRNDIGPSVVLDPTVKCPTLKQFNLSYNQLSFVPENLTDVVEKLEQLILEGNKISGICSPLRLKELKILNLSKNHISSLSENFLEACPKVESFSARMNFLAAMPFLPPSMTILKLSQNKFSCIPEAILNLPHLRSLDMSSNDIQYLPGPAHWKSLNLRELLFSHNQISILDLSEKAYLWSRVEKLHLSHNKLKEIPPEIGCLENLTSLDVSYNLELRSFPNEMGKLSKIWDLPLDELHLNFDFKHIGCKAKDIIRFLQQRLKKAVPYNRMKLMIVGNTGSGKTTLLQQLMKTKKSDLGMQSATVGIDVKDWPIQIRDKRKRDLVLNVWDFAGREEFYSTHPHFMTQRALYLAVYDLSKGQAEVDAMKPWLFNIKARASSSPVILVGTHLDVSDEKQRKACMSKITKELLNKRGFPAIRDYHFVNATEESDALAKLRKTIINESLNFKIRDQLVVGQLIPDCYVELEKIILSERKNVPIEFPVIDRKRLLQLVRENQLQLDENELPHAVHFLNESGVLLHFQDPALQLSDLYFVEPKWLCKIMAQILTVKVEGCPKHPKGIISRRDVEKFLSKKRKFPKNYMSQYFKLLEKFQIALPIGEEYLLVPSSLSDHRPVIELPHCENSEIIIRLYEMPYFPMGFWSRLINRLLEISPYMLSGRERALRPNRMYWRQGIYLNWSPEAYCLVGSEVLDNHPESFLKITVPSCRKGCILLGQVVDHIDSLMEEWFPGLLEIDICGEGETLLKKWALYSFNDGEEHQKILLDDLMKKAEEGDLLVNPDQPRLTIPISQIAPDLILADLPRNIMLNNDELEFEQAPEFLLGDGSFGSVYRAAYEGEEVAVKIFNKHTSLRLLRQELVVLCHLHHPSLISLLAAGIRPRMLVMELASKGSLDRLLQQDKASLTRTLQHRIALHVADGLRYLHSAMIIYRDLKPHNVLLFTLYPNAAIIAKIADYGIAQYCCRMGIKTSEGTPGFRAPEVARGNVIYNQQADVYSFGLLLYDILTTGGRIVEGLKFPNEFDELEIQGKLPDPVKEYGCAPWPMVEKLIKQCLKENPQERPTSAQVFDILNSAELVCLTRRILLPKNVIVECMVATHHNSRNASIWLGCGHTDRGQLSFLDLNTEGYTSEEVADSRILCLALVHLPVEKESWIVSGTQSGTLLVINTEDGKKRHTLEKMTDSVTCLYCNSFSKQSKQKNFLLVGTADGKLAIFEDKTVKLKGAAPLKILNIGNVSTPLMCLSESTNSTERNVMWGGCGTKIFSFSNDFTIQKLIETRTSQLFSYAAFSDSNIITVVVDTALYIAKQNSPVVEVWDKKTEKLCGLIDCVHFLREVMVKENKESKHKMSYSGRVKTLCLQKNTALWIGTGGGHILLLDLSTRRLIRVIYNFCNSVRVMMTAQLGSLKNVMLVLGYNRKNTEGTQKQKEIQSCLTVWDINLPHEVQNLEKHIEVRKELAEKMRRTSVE
DSTYK (human), sequence (Q6XUX3 whole entry, looked up): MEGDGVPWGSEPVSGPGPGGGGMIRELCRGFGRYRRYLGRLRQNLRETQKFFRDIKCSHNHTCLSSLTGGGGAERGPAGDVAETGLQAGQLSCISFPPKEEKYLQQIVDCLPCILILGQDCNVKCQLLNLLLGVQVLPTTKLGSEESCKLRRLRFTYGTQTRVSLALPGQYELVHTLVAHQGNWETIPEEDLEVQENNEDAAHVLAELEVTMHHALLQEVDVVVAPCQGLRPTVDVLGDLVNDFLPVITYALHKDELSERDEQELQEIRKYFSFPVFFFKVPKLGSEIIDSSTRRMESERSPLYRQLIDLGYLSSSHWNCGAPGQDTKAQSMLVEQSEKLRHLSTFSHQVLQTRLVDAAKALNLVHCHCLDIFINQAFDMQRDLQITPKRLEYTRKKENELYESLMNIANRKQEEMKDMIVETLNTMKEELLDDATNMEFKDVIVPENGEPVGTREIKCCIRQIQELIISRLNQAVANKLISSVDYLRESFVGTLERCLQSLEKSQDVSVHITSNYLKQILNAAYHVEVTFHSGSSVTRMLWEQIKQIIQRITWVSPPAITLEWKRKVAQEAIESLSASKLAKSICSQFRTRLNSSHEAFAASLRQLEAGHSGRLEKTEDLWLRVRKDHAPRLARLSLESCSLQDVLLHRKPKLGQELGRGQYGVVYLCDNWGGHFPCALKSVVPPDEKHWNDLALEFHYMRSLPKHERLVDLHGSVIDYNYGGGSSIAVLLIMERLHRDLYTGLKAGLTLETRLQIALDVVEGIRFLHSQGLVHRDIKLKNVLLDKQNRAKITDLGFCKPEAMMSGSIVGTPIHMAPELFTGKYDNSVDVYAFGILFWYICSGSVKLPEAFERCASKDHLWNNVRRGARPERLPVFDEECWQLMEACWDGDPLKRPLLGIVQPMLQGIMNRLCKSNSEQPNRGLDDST
PRKCI (human), sequence (P41743 whole entry, looked up): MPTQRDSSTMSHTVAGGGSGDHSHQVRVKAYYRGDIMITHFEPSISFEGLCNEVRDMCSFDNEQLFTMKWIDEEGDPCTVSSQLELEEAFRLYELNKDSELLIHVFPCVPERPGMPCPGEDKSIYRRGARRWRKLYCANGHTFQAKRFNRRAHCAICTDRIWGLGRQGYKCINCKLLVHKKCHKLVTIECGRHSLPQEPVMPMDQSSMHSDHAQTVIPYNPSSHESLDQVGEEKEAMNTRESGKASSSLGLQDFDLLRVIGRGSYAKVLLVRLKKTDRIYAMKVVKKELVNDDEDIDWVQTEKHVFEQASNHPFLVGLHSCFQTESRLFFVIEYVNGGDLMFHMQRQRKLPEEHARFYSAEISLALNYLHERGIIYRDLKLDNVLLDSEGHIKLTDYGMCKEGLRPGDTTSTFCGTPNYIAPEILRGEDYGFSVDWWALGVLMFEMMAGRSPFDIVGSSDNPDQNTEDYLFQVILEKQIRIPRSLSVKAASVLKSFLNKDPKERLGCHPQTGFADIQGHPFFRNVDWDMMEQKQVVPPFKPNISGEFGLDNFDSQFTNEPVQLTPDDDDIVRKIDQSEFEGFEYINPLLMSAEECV
MELK (human), sequence (Q14680 whole entry, looked up): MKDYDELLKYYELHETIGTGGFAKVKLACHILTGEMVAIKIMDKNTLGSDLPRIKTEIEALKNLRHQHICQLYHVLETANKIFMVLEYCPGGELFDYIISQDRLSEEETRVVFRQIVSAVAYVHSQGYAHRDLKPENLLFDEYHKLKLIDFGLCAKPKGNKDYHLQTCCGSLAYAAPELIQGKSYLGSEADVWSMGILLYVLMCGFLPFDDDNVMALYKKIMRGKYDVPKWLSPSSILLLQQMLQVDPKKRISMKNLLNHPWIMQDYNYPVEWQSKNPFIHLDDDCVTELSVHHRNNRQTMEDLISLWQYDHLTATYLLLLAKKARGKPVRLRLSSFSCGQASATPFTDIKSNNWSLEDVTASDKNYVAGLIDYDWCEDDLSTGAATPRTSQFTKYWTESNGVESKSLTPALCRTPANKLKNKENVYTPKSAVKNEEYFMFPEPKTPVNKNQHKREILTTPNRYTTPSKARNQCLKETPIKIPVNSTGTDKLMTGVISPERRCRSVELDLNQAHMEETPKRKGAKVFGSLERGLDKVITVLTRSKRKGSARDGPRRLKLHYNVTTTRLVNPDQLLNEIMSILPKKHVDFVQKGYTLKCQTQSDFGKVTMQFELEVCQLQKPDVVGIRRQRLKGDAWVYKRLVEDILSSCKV

**Q.** With `CC(C)n1nc(-c2cc3cc(O)ccc3[nH]2)c2c(N)ncnc21` as the molecule, how does the kinase still bound, per cent of control (DMPK (human)) read?
**A.** 0.55%

**Q.** What about the kinase still bound, per cent of control (STK10 (human)) of the same molecule?
**A.** 0.5%

**Q.** What about the kinase still bound, per cent of control (PTK6 (human)) of the same molecule?
**A.** 32%

**Q.** And the kinase still bound, per cent of control (PIP5K1A (human))?
**A.** 62%

**Q.** And the kinase still bound, per cent of control (LRRK2 (human))?
**A.** 4.8%

**Q.** What about the kinase still bound, per cent of control (CLK1 (human)) of the same molecule?
**A.** 14%

**Q.** What about the per cent of control (CDK11B (human)) of the same molecule?
**A.** 100%

**Q.** And the kinase still bound, per cent of control (TAOK1 (human))?
**A.** 0.2%

**Q.** And the kinase still bound, per cent of control (SIK3 (human))?
**A.** 20%

**Q.** What about the kinase still bound, per cent of control (WEE2 (human)) of the same molecule?
**A.** 100%

**Q.** What about the kinase still bound, per cent of control (PIM3 (human)) of the same molecule?
**A.** 31%

**Q.** And the kinase still bound, per cent of control (NEK5 (human))?
**A.** 86%

**Q.** And the kinase still bound, per cent of control (MELK (human))?
**A.** 10%

**Q.** And the kinase still bound, per cent of control (MAP3K6 (human))?
**A.** 85%

**Q.** What about the kinase still bound, per cent of control (PIP4K2B (human)) of the same molecule?
**A.** 55%

**Q.** What about the kinase still bound, per cent of control (TESK1 (human)) of the same molecule?
**A.** 17%

**Q.** And the kinase still bound, per cent of control (DSTYK (human))?
**A.** 5.8%

**Q.** And the kinase still bound, per cent of control (ULK1 (human))?
**A.** 86%

**Q.** And the kinase still bound, per cent of control (PRKD1 (human))?
**A.** 100%

**Q.** What about the kinase still bound, per cent of control [1] of the same molecule?
**A.** 11%

**Q.** And the kinase still bound, per cent of control (IRAK1 (human))?
**A.** 25%

**Q.** What about the kinase still bound, per cent of control (MTOR (human)) of the same molecule?
**A.** 0%

**Q.** What about the per cent of control (CDK14 (human)) of the same molecule?
**A.** 100%

**Q.** And the kinase still bound, per cent of control (WEE1 (human))?
**A.** 72%

**Q.** And the kinase still bound, per cent of control [2]?
**A.** 0.8%

**Q.** And the kinase still bound, per cent of control (PRKCI (human))?
**A.** 52%

**Q.** What about the kinase still bound, per cent of control (ROCK1 (human)) of the same molecule?
**A.** 61%

**Q.** And the per cent of control (CDK16 (human))?
**A.** 98%

**Q.** What about the kinase still bound, per cent of control (TNK1 (human)) of the same molecule?
**A.** 34%

**Q.** And the kinase still bound, per cent of control (PAK3 (human))?
**A.** 59%

**Q.** What about the per cent of control (PRKACB (human)) of the same molecule?
**A.** 65%

**Q.** And the kinase still bound, per cent of control (ACVR1B (human))?
**A.** 11%

**Q.** What about the kinase still bound, per cent of control (GRK7 (human)) of the same molecule?
**A.** 2.9%

**Q.** And the kinase still bound, per cent of control (STK33 (human))?
**A.** 45%

**Q.** What about the kinase still bound, per cent of control (MYO3A (human)) of the same molecule?
**A.** 12%

**Q.** What about the kinase still bound, per cent of control (EPHB1 (human)) of the same molecule?
**A.** 49%

**Q.** And the kinase still bound, per cent of control (HIPK1 (human))?
**A.** 1.9%

**Q.** And the kinase still bound, per cent of control [3]?
**A.** 11%

**Q.** What about the kinase still bound, per cent of control (LYN (human)) of the same molecule?
**A.** 12%

**Q.** What about the kinase still bound, per cent of control (CaMK1 (human)) of the same molecule?
**A.** 45%
